Assay results taken from ChEMBL document CHEMBL4373688 (Medchemcomm, 2019).

Tests used:
Homo sapiens = species on record: Homo sapiens; experiment: Selectivity ratio of IC50 for wild type His-tagged human FGFR3 (455 to 763 residues) expressed in Sf9 insect cells to IC50 for human VEGFR2 (805 to 1171 residues)
[1] = biological target: Fibroblast growth factor receptor 3 (Homo sapiens, UniProt P22607); experiment: biochemical; format: cell-based, Sf9
Description: Inhibition of wild type His-tagged human FGFR3 (455 to 763 residues) expressed in Sf9 insect cells by ELISA

[2] = biological target: Vascular endothelial growth factor receptor 2 (Homo sapiens, UniProt P35968)
Sequence of Vascular endothelial growth factor receptor 2 (P35968 whole entry): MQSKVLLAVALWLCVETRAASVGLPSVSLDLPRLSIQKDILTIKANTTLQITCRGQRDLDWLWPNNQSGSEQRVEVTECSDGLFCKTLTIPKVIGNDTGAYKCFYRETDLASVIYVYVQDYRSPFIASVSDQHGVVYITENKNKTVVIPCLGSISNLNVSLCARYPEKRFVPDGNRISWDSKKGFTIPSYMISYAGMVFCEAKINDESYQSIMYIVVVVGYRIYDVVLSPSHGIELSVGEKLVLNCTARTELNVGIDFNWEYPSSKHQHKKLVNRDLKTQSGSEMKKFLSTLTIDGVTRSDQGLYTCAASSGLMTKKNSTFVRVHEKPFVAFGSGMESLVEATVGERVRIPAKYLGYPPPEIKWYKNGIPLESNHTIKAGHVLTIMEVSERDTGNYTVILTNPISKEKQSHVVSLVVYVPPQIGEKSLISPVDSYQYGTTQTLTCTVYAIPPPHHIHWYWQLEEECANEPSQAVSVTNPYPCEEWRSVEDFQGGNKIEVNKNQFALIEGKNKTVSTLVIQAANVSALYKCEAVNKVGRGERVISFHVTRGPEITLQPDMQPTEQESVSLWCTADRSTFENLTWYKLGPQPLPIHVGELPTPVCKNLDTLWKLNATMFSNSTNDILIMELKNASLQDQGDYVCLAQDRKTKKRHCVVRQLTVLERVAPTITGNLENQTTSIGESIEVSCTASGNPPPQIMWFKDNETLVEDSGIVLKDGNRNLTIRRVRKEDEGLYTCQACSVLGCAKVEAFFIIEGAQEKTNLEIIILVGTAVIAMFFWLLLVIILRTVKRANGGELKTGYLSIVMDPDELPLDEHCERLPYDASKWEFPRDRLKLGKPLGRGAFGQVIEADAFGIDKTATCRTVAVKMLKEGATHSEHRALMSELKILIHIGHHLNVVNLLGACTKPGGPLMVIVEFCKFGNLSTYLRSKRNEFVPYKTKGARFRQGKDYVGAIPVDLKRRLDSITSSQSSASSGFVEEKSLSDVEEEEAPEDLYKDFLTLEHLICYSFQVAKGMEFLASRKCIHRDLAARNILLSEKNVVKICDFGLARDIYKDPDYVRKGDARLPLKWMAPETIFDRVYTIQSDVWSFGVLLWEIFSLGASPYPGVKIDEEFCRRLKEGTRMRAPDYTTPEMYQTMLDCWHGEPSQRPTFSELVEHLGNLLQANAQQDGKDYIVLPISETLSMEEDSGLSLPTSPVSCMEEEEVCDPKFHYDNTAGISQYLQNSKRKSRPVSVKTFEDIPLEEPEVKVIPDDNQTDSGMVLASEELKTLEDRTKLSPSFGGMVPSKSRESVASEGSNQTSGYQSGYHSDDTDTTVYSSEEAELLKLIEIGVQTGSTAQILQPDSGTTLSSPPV
Description: Inhibition of human VEGFR2 (805 to 1171 residues) by ELISA

Sequence of Fibroblast growth factor receptor 3 (P22607 whole entry): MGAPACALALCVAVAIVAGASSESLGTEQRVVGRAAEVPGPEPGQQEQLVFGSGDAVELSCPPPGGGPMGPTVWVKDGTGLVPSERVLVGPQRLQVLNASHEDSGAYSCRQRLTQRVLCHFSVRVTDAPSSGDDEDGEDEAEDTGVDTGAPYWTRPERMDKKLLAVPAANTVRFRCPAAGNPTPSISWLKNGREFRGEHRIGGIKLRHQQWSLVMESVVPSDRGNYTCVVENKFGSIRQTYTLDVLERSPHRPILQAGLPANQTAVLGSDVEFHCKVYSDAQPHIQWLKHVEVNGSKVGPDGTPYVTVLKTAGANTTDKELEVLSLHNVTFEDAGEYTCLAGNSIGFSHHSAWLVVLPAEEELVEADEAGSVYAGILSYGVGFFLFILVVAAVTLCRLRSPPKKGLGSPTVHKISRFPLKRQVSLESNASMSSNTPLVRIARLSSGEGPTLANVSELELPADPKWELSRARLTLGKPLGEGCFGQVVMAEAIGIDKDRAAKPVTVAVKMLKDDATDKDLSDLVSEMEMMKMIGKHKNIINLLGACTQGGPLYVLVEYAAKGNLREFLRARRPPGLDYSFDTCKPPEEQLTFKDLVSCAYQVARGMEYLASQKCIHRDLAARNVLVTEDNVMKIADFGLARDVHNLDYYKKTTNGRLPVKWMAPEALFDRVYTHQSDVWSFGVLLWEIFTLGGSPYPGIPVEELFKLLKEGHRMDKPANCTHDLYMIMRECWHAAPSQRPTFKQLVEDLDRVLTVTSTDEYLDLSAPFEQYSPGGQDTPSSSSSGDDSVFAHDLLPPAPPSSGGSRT

| IC50 [1] | IC50 [2] | Compound | Ratio IC50 (Homo sapiens) |
| --- | --- | --- | --- |
| 0.33 µM | 5.5 µM | COc1ccc(CNc2ccc3ncc(-c4cnn(C)c4)nc3c2)c(OC)c1 | 15 |
| 120 µM | 140 µM | Nc1ccc2nccnc2c1 |  |
| 6.5 µM | 0.46 µM | Cn1cc(-c2cnc3ccc(Cl)cc3n2)cn1 |  |
| 0.012 µM | 0.56 µM | COc1cc(Nc2ccc3ncc(-c4cnn(C)c4)nc3c2)cc(OC)c1 |  |
